Source: paper PMC7339578, “Multiple circulating alkaloids and saponins from intravenous Kang-Ai injection inhibit human cytochrome P450 and UDP-glucuronosyltransferase isozymes: potential drug–drug interactions” (Chinese Medicine, 2020)
Read-outs that look alike come from different tables or passages of the source.

Assays:
CYP2C8 = biological target: T1, CYP2C8 (Homo sapiens, UniProt P10632); experiment: Inhibition of recombinant CYP2C8 (probe paclitaxel); type: in vitro ADME; details: recombinant isozyme; mean ± SD of triplicate; unit not given (IC50 classes in μM); read-out: IC50 towards CYP2C8
T1 sequence (P10632 1-490): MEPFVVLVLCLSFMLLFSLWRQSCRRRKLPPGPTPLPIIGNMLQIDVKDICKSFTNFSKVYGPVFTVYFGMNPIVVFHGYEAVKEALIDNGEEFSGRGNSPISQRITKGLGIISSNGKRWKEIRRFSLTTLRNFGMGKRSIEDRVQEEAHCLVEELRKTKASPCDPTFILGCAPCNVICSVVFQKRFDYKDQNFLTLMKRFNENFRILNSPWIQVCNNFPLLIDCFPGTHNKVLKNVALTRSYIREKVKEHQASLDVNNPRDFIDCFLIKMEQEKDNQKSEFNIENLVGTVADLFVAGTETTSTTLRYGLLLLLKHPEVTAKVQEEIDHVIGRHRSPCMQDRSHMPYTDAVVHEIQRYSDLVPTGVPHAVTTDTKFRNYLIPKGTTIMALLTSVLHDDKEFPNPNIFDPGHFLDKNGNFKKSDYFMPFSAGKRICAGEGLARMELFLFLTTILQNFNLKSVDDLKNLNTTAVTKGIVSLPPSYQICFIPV
Protocol: (§1) In this study, phenacetin (100 μM), coumarin (100 μM), bupropion (100 μM), paclitaxel (60 μM), tolbutamide (200 μM), mephenytoin (100 μM), chlorzoxazone (200 μM) and nifedipine (40 μM) have been used as the probe substrates for CYP1A2, 2A6, 2B6, 2C8, 2C9, 2C19, 2E1 and 3A4, respectively.

[1] = Urinary (renal) excretion in rats after a 30-min infusion of Kang-Ai injection; type: in vivo, Sprague–Dawley rats; details: Kang-Ai injection 6 mL/kg iv
Outline: (§2)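 Urine collected in metabolic cages at 0–4, 4–8, 8–12 h and bile at 0–3, 3–6, 6–9, 9–12 h after infusion start, weighed and frozen at −80 °C. Non-compartmental analysis; CLR and CLB as cumulative urinary or biliary amount divided by plasma AUC0-∞, fe-U and fe-B as cumulative amount/dose; mean ± SD (n = 3).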

[2] = Stability tests of analytes in rat plasma QC samples; type: in vitro ADME; details: rat plasma
Protocol: […] The dilution integrity was investigated by analyzing six replicate samples with each analyte, and each analyte were diluted 10-fold with blank rat matrix. Furthermore, the diluted samples were analyzed using freshly prepared calibration curve to calculate RE and RSD, which should be no more than ± 15% as criterion.

CYP2C9 = CYP2C9 (Homo sapiens, UniProt P11712); experiment: Inhibition of recombinant CYP2C9 (probe tolbutamide); type: in vitro ADME; details: for IC50: read-out: IC50 towards CYP2C9
CYP2C9, sequence (P11712 whole entry): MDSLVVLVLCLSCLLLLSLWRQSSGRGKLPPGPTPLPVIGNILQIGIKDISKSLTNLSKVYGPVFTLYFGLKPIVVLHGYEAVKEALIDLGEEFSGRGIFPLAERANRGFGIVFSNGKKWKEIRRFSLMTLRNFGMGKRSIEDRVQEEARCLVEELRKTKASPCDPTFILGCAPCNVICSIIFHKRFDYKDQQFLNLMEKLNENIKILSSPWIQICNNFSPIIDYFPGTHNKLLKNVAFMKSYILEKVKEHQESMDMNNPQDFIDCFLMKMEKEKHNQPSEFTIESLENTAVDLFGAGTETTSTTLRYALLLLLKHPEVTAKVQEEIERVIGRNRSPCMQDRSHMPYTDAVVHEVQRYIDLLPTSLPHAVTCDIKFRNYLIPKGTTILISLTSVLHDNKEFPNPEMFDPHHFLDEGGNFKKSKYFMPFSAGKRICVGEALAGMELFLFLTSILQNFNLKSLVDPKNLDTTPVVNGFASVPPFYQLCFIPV
Protocol: as §1

[3] = Plasma pharmacokinetics in rats after a 30-min intravenous infusion of Kang-Ai injection; type: in vivo, Sprague–Dawley rats
Outline: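 Fasted male Sprague–Dawley rats (250 ± 20 g) got a single 30-min tail-vein infusion of Kang-Ai injection at 6 mL/kg. Jugular blood was sampled from 5 min to 12 h for plasma. Parameters came from non-compartmental analysis (trapezoidal AUC), n = 3.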

[4] = Biliary (hepatobiliary) excretion in rats after a 30-min infusion of Kang-Ai injection; type: in vivo, Sprague–Dawley rats; details: rat bile 0–12 h; Kang-Ai injection 6 mL/kg iv
Outline: as §2

[5] = male, Sprague-Dawley, rat, in vivo, iv

For CC(C)=CCC[C@](C)(O)[C@H]1CC[C@]2(C)[C@@H]1[C@H](O)C[C@@H]1[C@@]3(C)CC[C@H](O)C(C)(C)[C@@H]3[C@@H](O[C@@H]3O[C@H](CO)[C@@H](O)[C@H](O)[C@H]3O[C@@H]3O[C@H](CO)[C@@H](O)[C@H](O)[C@H]3O)C[C@]12C [Compound C7, Ginsenoside Rf], the IC50 (CYP2C8) was > 100 µM, the CL renal ([1]; male, Sprague-Dawley, urine and plasma, rat, read-out: CLR (renal excretory clearance) (converted)) was 0.322 mL/min and the “fe-U,0–12h (fraction of dose excreted into urine)” value ([1]; rat urine 0–12 h) was 17.77 ± 3.90%. The “At -80 °C for 48 h, Mean±SD” value ([2]; nominal conc. 20 nM) was 21.60 ± 0.37 nM, the “At -80 °C for 48 h, RE” value ([2]; nominal conc. 20 nM) was 9.41% and the “Extracted samples at 8 °C for 18 h, Mean±SD” value (“Extracted samples … Mean±SD” below) ([2]; nominal conc. 20 nM) was 19.73 ± 2.64 nM. The “Extracted samples at 8 °C for 18 h, RE” value ([2]; nominal conc. 20 nM) was 13.56%, the “Short-term stability at room temperature for 6 h, Mean±SD” value (“Short-term stability … Mean±SD” below) ([2]; nominal conc. 20 nM) was 20.44 ± 2.11 nM and the “Short-term stability at room temperature for 6 h, RE” value (“Short-term stability … for 6 h, RE” below) ([2]; nominal conc. 20 nM) was 11.15%. For the same molecule, the “Three freeze-thaw cycles (-80 °C ↔ 23 °C), Mean±SD” value (“Three freeze-thaw cycles … Mean±SD” for short) ([2]; nominal conc. 20 nM) was 22.07 ± 0.56 nM, the “Three freeze-thaw cycles (-80 °C ↔ 23 °C), RE” value ([2]; nominal conc. 20 nM) was 13.46% and the “At -80 °C for 48 h, Mean±SD” value ([2]; nominal conc. 100 nM) was 100.58 ± 11.11 nM. For the same molecule, the “At -80 °C for 48 h, RE” value ([2]; nominal conc. 100 nM) was 13.37%, the “Extracted samples … Mean±SD” value ([2]; nominal conc. 100 nM) was 93.83 ± 2.15 nM and the “Extracted samples at 8 °C for 18 h, RE” value ([2]; nominal conc. 100 nM) was -8.56%. For the same molecule, the “Short-term stability … Mean±SD” value ([2]; nominal conc. 100 nM) was 96.37 ± 9.64 nM, the “Short-term stability … for 6 h, RE” value ([2]; nominal conc. 100 nM) was -10.30% and the “Three freeze-thaw cycles … Mean±SD” value ([2]; nominal conc. 100 nM) was 101.34 ± 13.26 nM. The “Three freeze-thaw cycles (-80 °C ↔ 23 °C), RE” value ([2]; nominal conc. 100 nM) was -13.01%, the “At -80 °C for 48 h, Mean±SD” value ([2]; nominal conc. 400 nM) was 428.42 ± 28.06 nM and the “At -80 °C for 48 h, RE” value ([2]; nominal conc. 400 nM) was 14.40%. For the same molecule, the “Extracted samples … Mean±SD” value ([2]; nominal conc. 400 nM) was 392.21 ± 39.26 nM, the “Extracted samples at 8 °C for 18 h, RE” value ([2]; nominal conc. 400 nM) was -12.43% and the “Short-term stability … Mean±SD” value ([2]; nominal conc. 400 nM) was 357.16 ± 4.75 nM. The “Short-term stability … for 6 h, RE” value ([2]; nominal conc. 400 nM) was -11.69%, the “Three freeze-thaw cycles … Mean±SD” value ([2]; nominal conc. 400 nM) was 398.07 ± 39.06 nM and the “Three freeze-thaw cycles (-80 °C ↔ 23 °C), RE” value ([2]; nominal conc. 400 nM) was -10.52%. For the same molecule, the IC50 (CYP2C9; recombinant isozyme, mean ± SD of triplicate, unit not given (IC50 classes in μM)) was > 100 µM, the Cmax [3, 5] was 0.943 ± 0.172 µM and the clearance [3, 5] was 1.82 mL/min. For the same molecule, the half-life [3, 5] was 37.8 ± 18.6 min and the “fe-B,0–12h (fraction of dose excreted into bile)” value [4] was 13.12 ± 1.68%.
In the case of CC(C)(O)[C@@H]1CC[C@](C)([C@H]2[C@@H](O)C[C@@]3(C)[C@@H]4C[C@H](O[C@@H]5O[C@H](CO)[C@@H](O)[C@H](O)[C@H]5O)[C@H]5C(C)(C)[C@@H](O[C@@H]6OC[C@@H](O)[C@H](O)[C@H]6O)CC[C@@]56C[C@@]46CC[C@]23C)O1 [Compound B2, Astragaloside IV], the IC50 (CYP2C8) is reported as > 100 µM, the “fraction of dose excreted unchanged via renal plus hepatobiliary excretion (sum of fe-U and fe-B)” value ([1]; rat urine + bile, 0–12 h) is reported as “about 25%” and the “At -80 °C for 48 h, Mean±SD” value ([2]; nominal conc. 80 nM) is reported as 87.06 ± 0.84 nM. The “At -80 °C for 48 h, RE” value ([2]; nominal conc. 80 nM) was 9.91%, the “Extracted samples … Mean±SD” value ([2]; nominal conc. 80 nM) was 80.76 ± 10.01 nM and the “Extracted samples at 8 °C for 18 h, RE” value ([2]; nominal conc. 80 nM) was -13.07%. The “Short-term stability … Mean±SD” value ([2]; nominal conc. 80 nM) was 82.35 ± 9.84 nM, the “Short-term stability … for 6 h, RE” value ([2]; nominal conc. 80 nM) was -11.26% and the “Three freeze-thaw cycles … Mean±SD” value ([2]; nominal conc. 80 nM) was 88.56 ± 1.31 nM. The “Three freeze-thaw cycles (-80 °C ↔ 23 °C), RE” value ([2]; nominal conc. 80 nM) was 12.35%, the “At -80 °C for 48 h, Mean±SD” value ([2]; nominal conc. 400 nM) was 378.90 ± 6.78 nM and the “At -80 °C for 48 h, RE” value ([2]; nominal conc. 400 nM) was -7.16%. The “Extracted samples … Mean±SD” value ([2]; nominal conc. 400 nM) was 376.72 ± 29.81 nM, the “Extracted samples at 8 °C for 18 h, RE” value ([2]; nominal conc. 400 nM) was -10.44% and the “Short-term stability … Mean±SD” value ([2]; nominal conc. 400 nM) was 361.42 ± 15.40 nM. The “Short-term stability … for 6 h, RE” value ([2]; nominal conc. 400 nM) was -13.36%, the “Three freeze-thaw cycles … Mean±SD” value ([2]; nominal conc. 400 nM) was 385.93 ± 32.19 nM and the “Three freeze-thaw cycles (-80 °C ↔ 23 °C), RE” value ([2]; nominal conc. 400 nM) was -12.56%. The “At -80 °C for 48 h, Mean±SD” value ([2]; nominal conc. 1600 nM) was 1507.16 ± 152.79 nM, the “At -80 °C for 48 h, RE” value ([2]; nominal conc. 1600 nM) was -12.08% and the “Extracted samples … Mean±SD” value ([2]; nominal conc. 1600 nM) was 1574.79 ± 151.38 nM. For the same molecule, the “Extracted samples at 8 °C for 18 h, RE” value ([2]; nominal conc. 1600 nM) was -11.93%, the “Short-term stability … Mean±SD” value ([2]; nominal conc. 1600 nM) was 1463.38 ± 60.14 nM and the “Short-term stability … for 6 h, RE” value ([2]; nominal conc. 1600 nM) was -11.64%. The “Three freeze-thaw cycles … Mean±SD” value ([2]; nominal conc. 1600 nM) was 1434.32 ± 47.18 nM, the “Three freeze-thaw cycles (-80 °C ↔ 23 °C), RE” value ([2]; nominal conc. 1600 nM) was -13.10% and the “inhibition type (smallest AIC and SC)” value (CYP2C9; CYP2C9) was “Noncompetitive inhibition”. It also gave a Ki (CYP2C9; CYP2C9, competitive model) of 17.4 ± 3.7 µM, a Ki (CYP2C9; CYP2C9, mixed-type model) of 45 ± 16.6 µM and a α (CYP2C9; CYP2C9, mixed-type model) of 1.5 ± 1.0. The Ki (CYP2C9; CYP2C9, noncompetitive model) was 55.8 ± 5.3 µM, the “Cmax/Ki ([I]/Ki)” value (CYP2C9; CYP2C9, selected model, rat plasma Cmax) was 0.04 and the IC50 (CYP2C9; tolbutamide 200 μM) was 65 µM. For the same molecule, the t1/2 ([3]; rat plasma, 30-min iv infusion of Kang-Ai injection 6 mL/kg) was 98.4 ± 15.6 min, the Cmax ([3]; rat plasma, 30-min iv infusion of Kang-Ai injection 6 mL/kg, read-out: Cmax) was 2.36 ± 0.252 µM and the “VSS (Vd)” value ([3]; rat, Kang-Ai injection 6 mL/kg iv) was < 0.1 L/kg.
